Source: patent US5889013A, “Pyrimidine acyclonucleoside derivatives” (priority 1994, dated 1999)
pIC50: −log10 of the molar value. Like-named read-outs stand apart in the source and are kept apart here.

Legend:
[1] = test system: human immunodeficiency virus (HIV); details: cited from earlier work; for side effects: patients, clinical use
HIV-1 (HTLV-IIIB strain) = assay: Inhibitory activity for HIV-induced cytopathogenicity (MT-4 cells, MTT method); format: cell-based; details: read-out: 50% inhibitory concentration of HIV infection
Protocol: (§1) In RPMI 1640 culture medium supplemented with 10% heat-inactivated fetal bovine serum, 2 mM of L-glutamine, 100 U/mL of penicillin G and 100 μg/mL of streptomycin, MT-4 cells (HTLV-1 transformed T4-cell line) at a concentration of 1×10^4 /well in a flat-bottom, microtiter plate were infected with 500 TCID50 of HIV-1 (HTLV-IIIB strain). Immediately after virus infection, sample serially diluted with culture medium from stock solution prepared in dimethyl sulfoxide was added to each well in quadriplicate. After 6 days incubation at 37° C., the viability of mock and HIV-infected cells was determined by the 3-(4,5-dimethylthiazol-2-yl)-2,5-diphenyltetrazolium bromide (MTT) method. And also, the cytotoxicity of sample to MT-4 cells not infected with HIV was assessed in parallel with its antiviral activity under the same way as above.

[2] = Cytotoxicity to MT-4 cells not infected with HIV (MTT method); format: cell-based; details: human
Protocol: as §1

[3] = Human immunodeficiency virus 1, IIIB, MT4, 144 h
[4] = MT-4 cells not infected with HIV, 6 days, 37° C., MTT, read-out: 50% cytotoxic concentration to MT-4 cells

| Compound | pIC50 (HIV-1 (HTLV-IIIB strain); [3]) | CC50 at 144 h [2, 4] [µM] | further results |
| --- | --- | --- | --- |
| Cc1cn([C@H]2C[C@H](N=[N+]=[N-])[C@@H](CO)O2)c(=O)[nH]c1=O [AZT, 3'-Deoxy-3'-azidothymidine, reference compound] | 8.34 | 22.7 | clinical and immunological status of patients ([1]; patients with AIDS and AIDS-related complex): proven to improve the clinical and immunological status of patients with AIDS and AIDS-related complex; side effects [1]: serious side effects such as anemia and leukopenia |
| CCOCn1c([Se]c2cc(C)cc(C)c2)c(C(C)C)c(=O)[nH]c1=S [Compound 24, 6-[(3,5-dimethylphenyl)selenenyl]-1-(ethoxymethyl)-5-isopropyl-2-thiouracil] | 8.80 | 31.7 | – |
| CCOCn1c([Se]c2cc(F)cc(F)c2)c(C(C)C)c(=O)[nH]c1=S [Compound 25, 6-[(3,5-difluorophenyl)selenenyl]-1-(ethoxymethyl)-5-isopropyl-2-thiouracil] | 7.57 | 19.7 | – |
| CC(C)c1c([Se]c2ccccc2)n(COCc2ccccc2)c(=S)[nH]c1=O [Compound 26, 1-[(benzyloxy)methyl]-5-isopropyl-6-(phenylselenenyl)-2-thiouracil] | 9.15 | 30.2 | – |
| Cc1cccc([Se]c2c(C(C)C)c(=O)[nH]c(=S)n2COCc2ccccc2)c1 [Compound 27, 1-[(benzyloxy)methyl]-5-isopropyl-6-[(3-methylphenyl)selenenyl]-2-thiouracil] | 8.96 | 30 | – |
| Cc1cc(C)cc([Se]c2c(C(C)C)c(=O)[nH]c(=S)n2COCc2ccccc2)c1 [Compound 28, 1-[(benzyloxy)methyl]-6-[(3,5-dimethylphenyl)selenenyl]-5-isopropyl-2-thiouracil] | 8.27 | 30.9 | – |
| CCOCn1c([Se]c2cccc(C)c2)c(CC)c(=O)[nH]c1=O [Compound 29, 1-(ethoxymethyl)-5-ethyl-6-[(3-methylphenyl)selenenyl]uracil] | 8.40 | 32.1 | – |
| CCOCn1c([Se]c2cc(C)cc(C)c2)c(CC)c(=O)[nH]c1=O [Compound 30, 6-[(3,5-dimethylphenyl)selenenyl]-1-(ethoxymethyl)-5-etlyluracil] | 9.22 | 28.9 | – |
| CCOCn1c([Se]c2cc(F)cc(F)c2)c(CC)c(=O)[nH]c1=O [Compound 32, 6-[(3,5-difluorophenyl)selenenyl]-1-(ethoxymethyl)-5-ethyluracil] | 8.22 | 30.6 | – |
| CCc1c([Se]c2cccc(C)c2)n(COCc2ccccc2)c(=O)[nH]c1=O [Compound 37, 1-[(benzyloxy)methyl]-5-ethyl-6-[(3-methylphenyl)selenenyl]uracil] | 9.68 | 28.8 | – |
| CCc1c([Se]c2cc(C)cc(C)c2)n(COCc2ccccc2)c(=O)[nH]c1=O [Compound 38, 1-[(benzyloxy)methyl]-6-[(3,5-dimethylphenyl)selenenyl]-5-ethyluracil] | 10.10 | 31.7 | – |
| CCOCn1c([Se]c2ccccc2)c(C(C)C)c(=O)[nH]c1=O [Compound 48, 1-(ethoxymethyl)-5-isopropyl-6-(phenylselenenyl)uracil] | 8.38 | 32.5 | – |
| CCOCn1c([Se]c2cccc(C)c2)c(C(C)C)c(=O)[nH]c1=O [Compound 49, 1-(ethoxymethyl)-5-isopropyl-6-[(3-methylphenyl)selenenyl]uracil] | 9.15 | 29.2 | – |
| CCOCn1c([Se]c2cc(C)cc(C)c2)c(C(C)C)c(=O)[nH]c1=O [Compound 50, 6-[(3,5-dimethylphenyl)selenenyl]-1-(ethoxymethyl)-5-isopropyluracil] | 10.15 | 29.2 | – |
| CCOCn1c([Se]c2cc(F)cc(F)c2)c(C(C)C)c(=O)[nH]c1=O [Compound 51, 6-[(3,5-difluorophenyl)selenenyl]-1-(ethoxymethyl)-5-isopropyluracil] | 8.92 | 27.5 | – |
| CC(C)c1c([Se]c2ccccc2)n(COCc2ccccc2)c(=O)[nH]c1=O [Compound 52, 1-[(benzyloxy)methyl]-5-isopropyl-6-(phenylselenenyl)uracil] | 10.00 | 29.4 | – |
| Cc1cccc([Se]c2c(C(C)C)c(=O)[nH]c(=O)n2COCc2ccccc2)c1 [Compound 53, 1-[(benzyloxy)methyl]-5-isopropyl-6-[(3-methylphenyl)selenenyl]uracil] | 10.15 | 30.8 | – |
| Cc1cc(C)cc([Se]c2c(C(C)C)c(=O)[nH]c(=O)n2COCc2ccccc2)c1 [Compound 54, 1-[(benzyloxy)methyl]-6-[(3,5-dimethylphenyl)selenenyl]-5-isopropyluracil] | 10.68 | 30.2 | – |
| CCCCn1c([Se]c2ccccc2)c(CC)c(=O)[nH]c1=O [Compound 64, 1-butyl-5-ethyl-6-(phenylselenenyl)uracil] | 7.40 | 27.3 | – |
| CCCCn1c([Se]c2cc(C)cc(C)c2)c(CC)c(=O)[nH]c1=O [Compound 65, 1-butyl-6-[(3,5-dimethylphenyl)selenenyl]-5-ethyluracil] | 8.52 | 27.9 | – |
| CCc1c([Se]c2ccccc2)n(CCCc2ccccc2)c(=O)[nH]c1=O [Compound 73, 5-ethyl-1-(3-phenylpropyl)-6-(phenylselenenyl)uracil] | 8.52 | 26.1 | – |
| CCc1c([Se]c2cc(C)cc(C)c2)n(CCCc2ccccc2)c(=O)[nH]c1=O [Compound 74, 6-[(3,5-dimethylphenyl)selenenyl]-5-ethyl-1-(3-phenylpropyl)-uracil] | 8.10 | 27.7 | – |
| CCCCn1c([Se]c2ccccc2)c(C(C)C)c(=O)[nH]c1=O [Compound 81, 1-butyl-5-isopropyl-6-(phenylselenenyl)uracil] | 8.70 | 27.1 | – |
| CCCCn1c([Se]c2cc(C)cc(C)c2)c(C(C)C)c(=O)[nH]c1=O [Compound 83, 1-butyl-6-[(3,5-dimethylphenyl)selenenyl]-5-isopropyluracil] | 8.70 | 28.2 | – |
| CC(C)c1c([Se]c2ccccc2)n(CCCc2ccccc2)c(=O)[nH]c1=O [Compound 84, 5-isopropyl-1-(3-phenylpropyl)-6-(phenylselenenyl)uracil] | 8.10 | 28 | – |
| Cc1cc(C)cc([Se]c2c(C(C)C)c(=O)[nH]c(=O)n2CCCc2ccccc2)c1 [Compound 86, 6-[(3,5-dimethylphenyl)selenenyl]-5-isopropyl-1-(3-phenylpropyl)-uracil] | 9.22 | 26.9 | – |
| Nc1ccn([C@H]2CC[C@@H](CO)O2)c(=O)n1 [DDC, 2',3'-dideoxycytidine, reference compound] | – | – | side effects [1]: side effects such as peripheral neuropathy and pancreatitis; pIC50 (HIV-1 (HTLV-IIIB strain); Human immunodeficiency virus 1, MT4, 144 h, MT-4 cells infected with 500 TCID50 HIV-1 (HTLV-IIIB strain), 6 days, 37° C., MTT): 6.22; CC50 at 144 h ([2]; mt-4 cells): 17.6 µM |
| O=c1[nH]cnc2c1ncn2[C@H]1CC[C@@H](CO)O1 [DDI, 2',3'-dideoxyinosine] | – | – | side effects [1]: side effects such as peripheral neuropathy and pancreatitis |
